# Biological target: T1, ER (Homo sapiens, UniProt P03372)
# T1 construct: host or cells: T47D and MCF7 human breast cancer cells
# T1 sequence (P03372 1-595): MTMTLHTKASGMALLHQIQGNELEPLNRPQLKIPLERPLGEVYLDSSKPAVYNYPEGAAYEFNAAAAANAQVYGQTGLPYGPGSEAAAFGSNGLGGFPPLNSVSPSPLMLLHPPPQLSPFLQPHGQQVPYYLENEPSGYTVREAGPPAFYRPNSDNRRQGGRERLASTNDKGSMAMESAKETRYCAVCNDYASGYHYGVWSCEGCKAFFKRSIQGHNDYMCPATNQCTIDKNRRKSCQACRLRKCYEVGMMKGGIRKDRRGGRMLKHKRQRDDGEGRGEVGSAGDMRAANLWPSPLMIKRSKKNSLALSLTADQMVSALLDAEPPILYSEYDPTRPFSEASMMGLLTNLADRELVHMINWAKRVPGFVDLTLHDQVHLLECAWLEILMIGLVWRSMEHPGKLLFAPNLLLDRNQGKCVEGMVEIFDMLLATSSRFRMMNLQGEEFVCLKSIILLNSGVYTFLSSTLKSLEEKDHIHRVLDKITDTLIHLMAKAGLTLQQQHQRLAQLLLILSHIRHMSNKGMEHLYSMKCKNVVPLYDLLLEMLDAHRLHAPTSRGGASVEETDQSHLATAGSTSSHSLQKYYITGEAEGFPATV
# Test: ER degradation activity, in-cell western blot analysis in T47D cells
# Assay type: cell-based
# Conditions: 16 hours, Table A does not say which cell line (T47D or MCF7), read-out: Potency (DC50)
# Outline: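 T47D cells grown in DMEM with 10% FBS were treated with compounds for 16 hours at 0.5% DMSO final. ER was detected by in-cell western using 680/800 near-infrared secondary antibodies. Residual ER is given as percent of untreated and DMSO-treated wells set to 100%.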
row,DC50 [nM],Compound
1,> 100,"O=C1CCC(N2C(=O)c3cc4c(cc3C2=O)CN([C@H]2CC[C@H](NC3CN(c5ccc([C@@H]6c7ccc(O)cc7CC[C@@H]6c6ccccc6)cc5)C3)CC2)C4)C(=O)N1 (stereo partly drawn) [E 341, 2-(2,6-dioxopiperidin-3-yl)-6-((1R,4r)-4-((1-(4-((1R,2S)-6-hydroxy-2-phenyl-1,2,3,4-tetrahydronaphthalen-1-yl)phenyl)azetidin-3-yl)amino)cyclohexyl)-6,7-dihydropyrrolo[3,4-f]isoindole-1,3(2H,5H)-dione]"
2,> 100,"O=C1CCC(N2C(=O)c3cc4c(cc3C2=O)CN(Cc2cnc(N3CC(Oc5ccc([C@@H]6c7ccc(O)cc7CC[C@@H]6c6ccccc6)cc5)C3)cn2)C4)C(=O)N1 (stereo partly drawn) [E 342, 2-(2,6-dioxopiperidin-3-yl)-6-((5-(3-(4-((1R,2S)-6-hydroxy-2-phenyl-1,2,3,4-tetrahydronaphthalen-1-yl)phenoxy)azetidin-1-yl)pyrazin-2-yl)methyl)-6,7-dihydropyrrolo[3,4-f]isoindole-1,3(2H,5H)-dione]"
3,< 10,"C[C@@H]1Cc2c([nH]c3ccccc23)[C@@H](c2c(F)cc(-c3ccc(C(=O)N4CCC(N5Cc6cc7c(cc6C5)C(=O)N(C5CCC(=O)NC5=O)C7=O)CC4)cn3)cc2F)N1CC(F)F (stereo partly drawn) [E 343, 6-(1-(6-(4-((1R,3R)-2-(2,2-difluoroethyl)-3-methyl-2,3,4,9-tetrahydro-1H-pyrido[3,4-b]indol-1-yl)-3,5-difluorophenyl)nicotinoyl)piperidin-4-yl)-2-(2,6-dioxopiperidin-3-yl)-6,7-dihydropyrrolo[3,4-f]isoindole-1,3(2H,5H)-dione]"
4,> 100,"C[C@@H]1Cc2c([nH]c3ccccc23)[C@@H](c2c(F)cc(-c3cnc(C(=O)N4CCC(N5Cc6cc7c(cc6C5)C(=O)N(C5CCC(=O)NC5=O)C7=O)CC4)cn3)cc2F)N1CC(F)F (stereo partly drawn) [E 344, 6-(1-(5-(4-((1R,3R)-2-(2,2-difluoroethyl)-3-methyl-2,3,4,9-tetrahydro-1H-pyrido[3,4-b]indol-1-yl)-3,5-difluorophenyl)pyrazine-2-carbonyl)piperidin-4-yl)-2-(2,6-dioxopiperidin-3-yl)-6,7-dihydropyrrolo[3,4-f]isoindole-1,3(2H,5H)-dione]"
5,10 to 100,"C[C@@H]1Cc2c([nH]c3ccccc23)[C@@H](c2c(F)cc(-c3ccc(C(=O)N4CCC(N5Cc6cc7c(cc6C5)C(=O)N(C5CCC(=O)NC5=O)C7=O)CC4)nn3)cc2F)N1CC(F)F (stereo partly drawn) [E 345, 6-(1-(6-(4-((1R,3R)-2-(2,2-difluoroethyl)-3-methyl-2,3,4,9-tetrahydro-1H-pyrido[3,4-b]indol-1-yl)-3,5-difluorophenyl)pyridazine-3-carbonyl)piperidin-4-yl)-2-(2,6-dioxopiperidin-3-yl)-6,7-dihydropyrrolo[3,4-f]isoindole-1,3(2H,5H)-dione]"
6,< 10,"C[C@@H]1Cc2c([nH]c3ccccc23)[C@@H](c2c(F)cc(-c3ncc(C(=O)N4CCC(N5Cc6cc7c(cc6C5)C(=O)N(C5CCC(=O)NC5=O)C7=O)CC4)cn3)cc2F)N1CC(F)F (stereo partly drawn) [E 346, 6-(1-(2-(4-((1R,3R)-2-(2,2-difluoroethyl)-3-methyl-2,3,4,9-tetrahydro-1H-pyrido[3,4-b]indol-1-yl)-3,5-difluorophenyl)pyrimidine-5-carbonyl)piperidin-4-yl)-2-(2,6-dioxopiperidin-3-yl)-6,7-dihydropyrrolo[3,4-f]isoindole-1,3(2H,5H)-dione]"
7,< 10,"C[C@@H]1Cc2c([nH]c3ccccc23)[C@@H](c2c(F)cc(-c3ccc(C(=O)N4CCC(N5Cc6cc7c(cc6C5)C(=O)N(C5CCC(=O)NC5=O)C7=O)CC4)cc3)cc2F)N1CC(F)F (stereo partly drawn) [E 347, 6-(1-(4′-((1R,3R)-2-(2,2-difluoroethyl)-3-methyl-2,3,4,9-tetrahydro-1H-pyrido[3,4-b]indol-1-yl)-3′,5′-difluoro-[1,1′-biphenyl]-4-carbonyl)piperidin-4-yl)-2-(2,6-dioxopiperidin-3-yl)-6,7-dihydropyrrolo[3,4-f]isoindole-1,3(2H,5H)-dione]"
8,10 to 100,"C[C@@H]1Cc2c([nH]c3ccccc23)[C@@H](c2c(F)cc(C3CCN(C(=O)C4CCC(N5Cc6cc7c(cc6C5)C(=O)N(C5CCC(=O)NC5=O)C7=O)CC4)CC3)cc2F)N1CC(F)F (stereo partly drawn) [E 348, 6-(4-(4-(4-((1R,3R)-2-(2,2-difluoroethyl)-3-methyl-2,3,4,9-tetrahydro-1H-pyrido[3,4-b]indol-1-yl)-3,5-difluorophenyl)piperidine-1-carbonyl)cyclohexyl)-2-(2,6-dioxopiperidin-3-yl)-6,7-dihydropyrrolo[3,4-f]isoindole-1,3(2H,5H)-dione]"
9,> 100,"C[C@@H]1Cc2cc(O)ccc2[C@@H](c2ccc(N3CCC(C(=O)N4CC(CN5Cc6cc7c(cc6C5)C(=O)N(C5CCC(=O)NC5=O)C7=O)C4)CC3)cc2F)N1CC(F)F (stereo partly drawn) [E 349, 6-((1-(1-(4-((1S,3R)-2-(2,2-difluoroethyl)-6-hydroxy-3-methyl-1,2,3,4-tetrahydroisoquinolin-1-yl)-3-fluorophenyl)piperidine-4-carbonyl)azetidin-3-yl)methyl)-2-(2,6-dioxopiperidin-3-yl)-6,7-dihydropyrrolo[3,4-f]isoindole-1,3(2H,5H)-dione]"
10,> 100,"C[C@@H]1Cc2cc(O)ccc2[C@@H](c2ccc(N3CCC(C(=O)N4CC(CN5Cc6cc7c(cc6C5)C(=O)N(C5CCC(=O)NC5=O)C7=O)C4)CC3)cc2)N1CC(F)F (stereo partly drawn) [E 350, 6-((1-(1-(4-((1R,3R)-2-(2,2-difluoroethyl)-6-hydroxy-3-methyl-1,2,3,4-tetrahydroisoquinolin-1-yl)phenyl)piperidine-4-carbonyl)azetidin-3-yl)methyl)-2-(2,6-dioxopiperidin-3-yl)-6,7-dihydropyrrolo[3,4-f]isoindole-1,3(2H,5H)-dione]"
11,> 100,"C[C@@H]1Cc2cc(O)ccc2[C@@H](c2ccc(N3CCC(C(=O)N4CC(CN5Cc6cc7c(cc6C5)C(=O)N(C5CCC(=O)NC5=O)C7=O)C4)CC3)cn2)N1CC(F)F (stereo partly drawn) [E 351, 6-((1-(1-(6-((1S,3R)-2-(2,2-difluoroethyl)-6-hydroxy-3-methyl-1,2,3,4-tetrahydroisoquinolin-1-yl)pyridin-3-yl)piperidine-4-carbonyl)azetidin-3-yl)methyl)-2-(2,6-dioxopiperidin-3-yl)-6,7-dihydropyrrolo[3,4-f]isoindole-1,3(2H,5H)-dione]"
12,< 10,"O=C1CCC(N2Cc3cc4c(cc3C2=O)CN(C(=O)CN2CCC3(CC2)CCN(c2ccc([C@@H]5c6ccc(O)cc6CC[C@@H]5c5ccccc5)cc2)CC3)C4)C(=O)N1 (stereo partly drawn) [E 354, 3-(6-(2-(9-(4-((1R,2S)-6-hydroxy-2-phenyl-1,2,3,4-tetrahydronaphthalen-1-yl)phenyl)-3,9-diazaspiro[5.5]undecan-3-yl)acetyl)-1-oxo-3,5,6,7-tetrahydropyrrolo[3,4-f]isoindol-2(1H)-yl)piperidine-2,6-dione]"
13,10 to 100,"O=C1CCC(N2Cc3cc4c(cc3C2=O)CN(C(=O)C2CCC(NC3CN(c5ccc([C@@H]6c7ccc(O)cc7CC[C@@H]6c6ccccc6)cc5)C3)CC2)C4)C(=O)N1 (stereo partly drawn) [E 359, 3-(6-(4-((1-(4-((1R,2S)-6-hydroxy-2-phenyl-1,2,3,4-tetrahydronaphthalen-1-yl)phenyl)azetidin-3-yl)amino)cyclohexane-1-carbonyl)-1-oxo-3,5,6,7-tetrahydropyrrolo[3,4-f]isoindol-2(1H)-yl)piperidine-2,6-dione]"
14,> 100,"CN(C1CCN(c2ccc([C@@H]3c4ccc(O)cc4CC[C@@H]3c3ccccc3)cc2)CC1)C1CC(C(=O)N2Cc3cc4c(cc3C2)C(=O)N(C2CCC(=O)NC2=O)C4=O)C1 (stereo partly drawn) [E 362, 2-(2,6-dioxopiperidin-3-yl)-6-(3-((1-(4-((1R,2S)-6-hydroxy-2-phenyl-1,2,3,4-tetrahydronaphthalen-1-yl)phenyl)piperidin-4-yl)(methyl)amino)cyclobutane-1-carbonyl)-6,7-dihydropyrrolo[3,4-f]isoindole-1,3(2H,5H)-dione]"
15,< 10,"O=C1CCC(N2C(=O)c3cc4c(cc3C2=O)CN(C(=O)[C@H]2CC[C@H](CN3CC(Nc5ccc([C@@H]6c7ccc(O)cc7CC[C@@H]6c6ccccc6)cc5)C3)CC2)C4)C(=O)N1 (stereo partly drawn) [E 363, 2-(2,6-dioxopiperidin-3-yl)-6-((1R,4r)-4-((3-((4-((1R,2S)-6-hydroxy-2-phenyl-1,2,3,4-tetrahydronaphthalen-1-yl)phenyl)amino)azetidin-1-yl)methyl)cyclohexane-1-carbonyl)-6,7-dihydropyrrolo[3,4-f]isoindole-1,3(2H,5H)-dione]"
16,10 to 100,"O=C1CCC(N2C(=O)c3cc4c(cc3C2=O)CN(C(=O)[C@H]2CC[C@@H](CN3CC(Nc5ccc([C@@H]6c7ccc(O)cc7CC[C@@H]6c6ccccc6)cc5)C3)CC2)C4)C(=O)N1 (stereo partly drawn) [E 364, 2-(2,6-dioxopiperidin-3-yl)-6-((1S,4s)-4-((3-((4-((1R,2S)-6-hydroxy-2-phenyl-1,2,3,4-tetrahydronaphthalen-1-yl)phenyl)amino)azetidin-1-yl)methyl)cyclohexane-1-carbonyl)-6,7-dihydropyrrolo[3,4-f]isoindole-1,3(2H,5H)-dione]"

# From US20240190880A1 (THE REGENTS OF THE UNIVERSITY OF MICHIGAN, priority 2021, published 2024)
